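Test compounds were applied to cells in 96-well plates for 48 hours at 5 doses. GI50 is the concentration that inhibits growth by half.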 Activity calls are given as the source filed them. Rule as the data show it: active = GI50 up to about 1.1 µM and inactive = higher.
How the values were obtained:
Experiment in all cases: growth of human tumour cells (NCI), 48 h
U-251 = test system: U-251
RXF 393 = test system: RXF 393
EKVX = test system: EKVX
NCI-H226 = test system: NCI-H226
DU-145 = test system: DU-145
A498 = test system: A498
NCI-H460 = test system: NCI-H460
MDA-MB-231 = test system: MDA-MB-231
NCI-H23 = test system: NCI-H23
HCT-15 = test system: HCT-15
NCI/ADR-RES = test system: NCI/ADR-RES
HOP-62 = test system: HOP-62
K562 = test system: K562
LOX IMVI = test system: LOX IMVI
SK-MEL-28 = test system: SK-MEL-28
HT-29 = test system: HT-29
SNB-19 = test system: SNB-19
HCT-116 = test system: HCT-116
786-0 = test system: 786-0
PC-3 = test system: PC-3
HOP-92 = test system: HOP-92
SR = test system: SR
CAKI-1 = test system: CAKI-1
UACC-257 = test system: UACC-257
SF-268 = test system: SF-268
SN12C = test system: SN12C
Malme-3M = test system: Malme-3M
MDA-MB-435 = test system: MDA-MB-435
SF-295 = test system: SF-295
MDA-N = test system: MDA-N
MOLT-4 = test system: MOLT-4
SW-620 = test system: SW-620
UACC-62 = test system: UACC-62
UO-31 = test system: UO-31
M14 = test system: M14
OVCAR-5 = test system: OVCAR-5
IGROV-1 = test system: IGROV-1
OVCAR-3 = test system: OVCAR-3
A549 = test system: A549
ACHN = test system: ACHN
TK-10 = test system: TK-10
OVCAR-4 = test system: OVCAR-4
HL-60 = test system: HL-60
T47D = test system: T47D
BT-549 = test system: BT-549
SNB-75 = test system: SNB-75
OVCAR-8 = test system: OVCAR-8
SK-MEL-2 = test system: SK-MEL-2
NCI-H522 = test system: NCI-H522
SK-MEL-5 = test system: SK-MEL-5
MCF7 = test system: MCF7
KM12 = test system: KM12
RPMI-8226 = test system: RPMI-8226
HCC 2998 = test system: HCC 2998
CCRF-CEM = test system: CCRF-CEM
SF-539 = test system: SF-539
COLO 205 = test system: COLO 205

## COC(=O)c1cc(O)nc(O)n1
U-251
  GI50: > 100 µM (inactive)
RXF 393
  GI50: > 100 µM (inactive)
EKVX
  GI50: > 100 µM (inactive)
NCI-H226
  GI50: > 100 µM (inactive)
DU-145
  GI50: > 100 µM (inactive)
A498
  GI50: > 100 µM (inactive)
NCI-H460
  GI50: > 100 µM (inactive)
MDA-MB-231
  GI50: > 100 µM (inactive)
NCI-H23
  GI50: > 100 µM (inactive)
HCT-15
  GI50: > 100 µM
NCI/ADR-RES
  GI50: > 100 µM (inactive)
HOP-62
  GI50: > 100 µM (inactive)
K562
  GI50: > 100 µM (inactive)
LOX IMVI
  GI50: > 100 µM (inactive)
SK-MEL-28
  GI50: > 100 µM (inactive)
HT-29
  GI50: > 100 µM (inactive)
SNB-19
  GI50: > 100 µM (inactive)
HCT-116
  GI50: > 100 µM (inactive)
786-0
  GI50: > 100 µM (inactive)
PC-3
  GI50: > 100 µM (inactive)
HOP-92
  GI50: > 100 µM (inactive)
SR
  GI50: > 100 µM (inactive)
CAKI-1
  GI50: > 100 µM (inactive)
UACC-257
  GI50: > 100 µM (inactive)
SF-268
  GI50: > 100 µM (inactive)
SN12C
  GI50: > 100 µM (inactive)
Malme-3M
  GI50: > 100 µM (inactive)
MDA-MB-435
  GI50: > 100 µM (inactive)
SF-295
  GI50: > 100 µM (inactive)
MDA-N
  GI50: > 100 µM (inactive)
MOLT-4
  GI50: > 100 µM (inactive)
SW-620
  GI50: > 100 µM (inactive)
UACC-62
  GI50: > 100 µM (inactive)
UO-31
  GI50: > 100 µM (inactive)
M14
  GI50: > 100 µM (inactive)
OVCAR-5
  GI50: > 100 µM (inactive)
IGROV-1
  GI50: > 100 µM (inactive)
OVCAR-3
  GI50: > 100 µM (inactive)
A549
  GI50: > 100 µM (inactive)
ACHN
  GI50: > 100 µM (inactive)
TK-10
  GI50: > 100 µM (inactive)
OVCAR-4
  GI50: > 100 µM (inactive)
HL-60
  GI50: > 100 µM (inactive)
T47D
  GI50: > 100 µM (inactive)
BT-549
  GI50: > 100 µM (inactive)
SNB-75
  GI50: > 100 µM (inactive)
OVCAR-8
  GI50: > 100 µM (inactive)
SK-MEL-2
  GI50: > 100 µM (inactive)
NCI-H522
  GI50: > 100 µM (inactive)
SK-MEL-5
  GI50: > 100 µM (inactive)

## CCOC(=O)c1cn(-c2ccc([N+](=O)[O-])cc2)c(=S)n2c1nc1ccccc12
U-251
  GI50: 36.2 µM (inactive)
RXF 393
  GI50: 63.5 µM (inactive)
EKVX
  GI50: 53.7 µM (inactive)
NCI-H226
  GI50: 37.2 µM (inactive)
MCF7
  GI50: 33.2 µM (inactive)
DU-145
  GI50: 81.7 µM (inactive)
A498
  GI50: 20.6 µM (inactive)
NCI-H460
  GI50: 51.5 µM (inactive)
MDA-MB-231
  GI50: 30.9 µM (inactive)
NCI-H23
  GI50: 34.1 µM (inactive)
HCT-15
  GI50: 35.4 µM
NCI/ADR-RES
  GI50: 20.8 µM (inactive)
HOP-62
  GI50: 63.2 µM (inactive)
K562
  GI50: 46.5 µM (inactive)
LOX IMVI
  GI50: 56.5 µM (inactive)
KM12
  GI50: 30.1 µM (inactive)
SK-MEL-28
  GI50: 49.9 µM (inactive)
HT-29
  GI50: 26.4 µM (inactive)
RPMI-8226
  GI50: 24.6 µM (inactive)
SNB-19
  GI50: 72.6 µM (inactive)
HCT-116
  GI50: 31.1 µM (inactive)
786-0
  GI50: 30.1 µM (inactive)
HCC 2998
  GI50: 23.1 µM (inactive)
PC-3
  GI50: 13.6 µM (inactive)
HOP-92
  GI50: 18.5 µM (inactive)
CCRF-CEM
  GI50: 9.84 µM (inactive)
SR
  GI50: 39.5 µM (inactive)
CAKI-1
  GI50: 42.9 µM (inactive)
UACC-257
  GI50: 30.7 µM (inactive)
SN12C
  GI50: 50.1 µM (inactive)
MDA-MB-435
  GI50: 41.8 µM (inactive)
SF-295
  GI50: 45.6 µM (inactive)
MDA-N
  GI50: 39.7 µM (inactive)
MOLT-4
  GI50: 28 µM (inactive)
SW-620
  GI50: 47 µM (inactive)
UACC-62
  GI50: 31.8 µM (inactive)
SF-539
  GI50: 32 µM (inactive)
UO-31
  GI50: 1.83 µM (inactive)
M14
  GI50: 61 µM (inactive)
OVCAR-5
  GI50: > 100 µM (inactive)
IGROV-1
  GI50: 54.1 µM (inactive)
OVCAR-3
  GI50: 53.7 µM (inactive)
A549
  GI50: 36.7 µM (inactive)
ACHN
  GI50: 32 µM (inactive)
OVCAR-4
  GI50: 21.6 µM (inactive)
COLO 205
  GI50: 23.2 µM (inactive)
T47D
  GI50: 58.6 µM (inactive)
BT-549
  GI50: 35 µM (inactive)
SNB-75
  GI50: > 100 µM (inactive)
OVCAR-8
  GI50: 35.5 µM (inactive)
SK-MEL-2
  GI50: 17.8 µM (inactive)
SK-MEL-5
  GI50: 21.9 µM (inactive)

## CC1(C)OC2[C@@H](CO[C@@]3([C@@H](O)CCO)OC(C)(C)O[C@@H]23)O1 (stereo partly specified)
U-251
  GI50: > 100 µM (inactive)
RXF 393
  GI50: > 100 µM (inactive)
EKVX
  GI50: > 100 µM (inactive)
NCI-H226
  GI50: > 100 µM (inactive)
MCF7
  GI50: > 100 µM (inactive)
DU-145
  GI50: > 100 µM (inactive)
NCI-H460
  GI50: > 100 µM (inactive)
MDA-MB-231
  GI50: > 100 µM (inactive)
NCI-H23
  GI50: > 100 µM (inactive)
HCT-15
  GI50: > 100 µM
NCI/ADR-RES
  GI50: > 100 µM (inactive)
HOP-62
  GI50: > 100 µM (inactive)
K562
  GI50: > 100 µM (inactive)
LOX IMVI
  GI50: > 100 µM (inactive)
KM12
  GI50: > 100 µM (inactive)
SK-MEL-28
  GI50: > 100 µM (inactive)
HT-29
  GI50: > 100 µM (inactive)
RPMI-8226
  GI50: > 100 µM (inactive)
SNB-19
  GI50: > 100 µM (inactive)
HCT-116
  GI50: > 100 µM (inactive)
786-0
  GI50: > 100 µM (inactive)
HCC 2998
  GI50: > 100 µM (inactive)
PC-3
  GI50: > 100 µM (inactive)
HOP-92
  GI50: > 100 µM (inactive)
CCRF-CEM
  GI50: > 100 µM (inactive)
SR
  GI50: > 100 µM (inactive)
CAKI-1
  GI50: > 100 µM (inactive)
UACC-257
  GI50: > 100 µM (inactive)
SF-268
  GI50: > 100 µM (inactive)
SN12C
  GI50: > 100 µM (inactive)
MDA-MB-435
  GI50: > 100 µM (inactive)
SF-295
  GI50: > 100 µM (inactive)
MDA-N
  GI50: > 100 µM (inactive)
MOLT-4
  GI50: > 100 µM (inactive)
SW-620
  GI50: > 100 µM (inactive)
UACC-62
  GI50: > 100 µM (inactive)
SF-539
  GI50: > 100 µM (inactive)
UO-31
  GI50: > 100 µM (inactive)
M14
  GI50: > 100 µM (inactive)
OVCAR-5
  GI50: > 100 µM (inactive)
IGROV-1
  GI50: > 100 µM (inactive)
OVCAR-3
  GI50: > 100 µM (inactive)
ACHN
  GI50: > 100 µM (inactive)
TK-10
  GI50: > 100 µM (inactive)
OVCAR-4
  GI50: > 100 µM (inactive)
COLO 205
  GI50: > 100 µM (inactive)
HL-60
  GI50: > 100 µM (inactive)
T47D
  GI50: > 100 µM (inactive)
BT-549
  GI50: > 100 µM (inactive)
SNB-75
  GI50: > 100 µM (inactive)
OVCAR-8
  GI50: > 100 µM (inactive)
SK-MEL-2
  GI50: > 100 µM (inactive)
NCI-H522
  GI50: > 100 µM (inactive)
SK-MEL-5
  GI50: > 100 µM (inactive)
